Measured values reported in patent publication EP0385663B1, “Heterocyclic cycloalkanes as inhibitors of 5-lipoxygenase” (ZENECA LIMITED, priority 1989, dated 1990).

How the values were obtained:
5-LO = assay: Test c): ex vivo assay, compound administered, blood collected, A23187 challenge, LTB₄ radioimmunoassay; assay type: in vivo
Protocol: (§1) As stated previously, the heterocyclic cycloalkanes of the formula I are inhibitors of the enzyme 5-LO. […] This test provides a measure of the intrinsic inhibitory properties against soluble 5-LO in an extracellular environment. • b) An in vitro assay system involving incubating a test compound with heparinised human blood, prior to challenge with the calcium ionophore A23187 and then indirectly measuring the inhibitory effects on 5-LO by assaying the amount of LTB₄ using the specific radioimmunoassay described by Carey and Forder (F. Carey and R.A. Forder, Brit. […] The effects of a test compound on the enzyme cyclooxygenase (which is involved in the alternative metabolic pathway for arachidonic acid and gives rise to prostaglandins, thromboxanes and related metabolites) may be measured at the same time using the specific radioimmunoassay for thromboxane B₂(TxB₂) described by Carey and Forder (see above). […] It permits the selectivity of the inhibitory effect on 5-LO or cyclooxygenase to be assessed. • c) An ex vivo assay system, which is a variation of test b) above, involving administration of a test compound (usually orally as the suspension produced when a solution of the test compound in dimethylsulphoxide is added to carboxymethylcellulose), blood collection, heparinisation, challenge with A23187 and radioimmunoassay of LTB₄ and TxB₂. […]

cyclooxygenase = biological target: T1, cyclooxygenase (Homo sapiens, UniProt P23219); assay: Test b): heparinised human blood challenged with A23187, TxB₂ radioimmunoassay; assay type: cell-based; conditions: read-out: IC₅₀ (TxB₂)
T1 construct: incubating a test compound with heparinised human blood; endogenous in cells; host or cells: blood cells (platelets) in heparinised human whole blood
T1 sequence (P23219 24-599): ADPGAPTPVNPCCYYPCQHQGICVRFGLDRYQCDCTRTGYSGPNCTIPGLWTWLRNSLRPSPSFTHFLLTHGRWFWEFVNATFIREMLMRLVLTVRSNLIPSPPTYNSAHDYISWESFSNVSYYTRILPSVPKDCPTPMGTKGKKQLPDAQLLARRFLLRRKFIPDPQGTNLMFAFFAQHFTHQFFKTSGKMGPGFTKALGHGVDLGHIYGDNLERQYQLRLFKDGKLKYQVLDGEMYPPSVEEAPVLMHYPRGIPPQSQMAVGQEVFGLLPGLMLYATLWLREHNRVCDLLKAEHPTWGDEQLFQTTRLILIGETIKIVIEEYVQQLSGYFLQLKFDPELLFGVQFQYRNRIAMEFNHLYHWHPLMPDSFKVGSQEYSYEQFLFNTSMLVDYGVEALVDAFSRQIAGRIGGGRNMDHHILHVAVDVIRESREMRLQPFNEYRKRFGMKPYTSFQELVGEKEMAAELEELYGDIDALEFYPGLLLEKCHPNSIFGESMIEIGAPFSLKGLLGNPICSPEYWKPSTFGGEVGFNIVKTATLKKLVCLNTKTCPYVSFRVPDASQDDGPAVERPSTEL
Protocol: as §1

For `CO[C@@H]1CCC[C@]1(OC)c1cccc(OCC#Cc2ccccn2)c1` (relative stereo) [Example 2, trans-1,2-dimethoxy-1-[3-(3-(2-pyridyl)prop-2-yn-1-yloxy)phenyl]cyclopentane], the “oral ED₅₀(LTB₄)” value (5-LO) was < 100 mg/kg and the IC50 (cyclooxygenase) was > 40 µM.
